Reference: US20250214960A1, “COMPOUNDS HAVING ACTIVITY OF DEGRADING GSPT1 AND APPLICATION THEREOF” (SHANGHAI MEIZER PHARMACEUTICALS CO., LTD., priority 2021, published 2025)
Where two headings read alike, the source gives them in different places.

Key:
Format in all cases: cell-based
[1] = target: T1, GSPT1 protein (Homo sapiens, UniProt P15170+Q96SW2); assay: Western blot detection of degradation activity of GSPT1 protein in Jeko-1 cells; settings: JeKo-1, 24 h, read-out: GSPT1 degradation rate (%)
T1 construct: endogenous in cells; host or cells: Jeko-1
T1 sequence (P15170 whole entry): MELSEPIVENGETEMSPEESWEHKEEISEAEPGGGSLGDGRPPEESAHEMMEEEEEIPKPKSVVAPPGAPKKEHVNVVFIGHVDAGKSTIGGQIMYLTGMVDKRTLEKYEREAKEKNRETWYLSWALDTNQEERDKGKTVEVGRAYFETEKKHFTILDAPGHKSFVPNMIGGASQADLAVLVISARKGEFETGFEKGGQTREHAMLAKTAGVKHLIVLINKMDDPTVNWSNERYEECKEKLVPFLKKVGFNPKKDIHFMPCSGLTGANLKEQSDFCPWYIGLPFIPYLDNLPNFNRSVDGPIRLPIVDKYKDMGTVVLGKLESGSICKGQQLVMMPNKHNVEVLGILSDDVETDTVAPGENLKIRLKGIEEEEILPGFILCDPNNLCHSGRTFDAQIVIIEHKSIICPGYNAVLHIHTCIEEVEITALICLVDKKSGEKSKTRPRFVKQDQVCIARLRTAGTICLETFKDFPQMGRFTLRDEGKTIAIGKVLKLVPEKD
T1 sequence (Q96SW2 whole entry): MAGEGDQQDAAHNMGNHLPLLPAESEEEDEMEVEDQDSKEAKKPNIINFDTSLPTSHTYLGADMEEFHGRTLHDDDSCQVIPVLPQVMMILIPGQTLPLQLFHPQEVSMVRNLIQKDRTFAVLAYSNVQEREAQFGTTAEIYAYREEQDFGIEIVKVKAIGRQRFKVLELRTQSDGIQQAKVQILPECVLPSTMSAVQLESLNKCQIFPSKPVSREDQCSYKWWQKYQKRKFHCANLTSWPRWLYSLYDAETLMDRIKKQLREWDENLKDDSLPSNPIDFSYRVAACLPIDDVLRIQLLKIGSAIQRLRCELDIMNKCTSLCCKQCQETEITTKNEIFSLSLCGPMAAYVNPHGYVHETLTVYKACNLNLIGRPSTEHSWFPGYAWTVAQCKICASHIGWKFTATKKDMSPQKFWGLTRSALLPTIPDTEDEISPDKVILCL
T1 sequence (Q16531 whole entry partner): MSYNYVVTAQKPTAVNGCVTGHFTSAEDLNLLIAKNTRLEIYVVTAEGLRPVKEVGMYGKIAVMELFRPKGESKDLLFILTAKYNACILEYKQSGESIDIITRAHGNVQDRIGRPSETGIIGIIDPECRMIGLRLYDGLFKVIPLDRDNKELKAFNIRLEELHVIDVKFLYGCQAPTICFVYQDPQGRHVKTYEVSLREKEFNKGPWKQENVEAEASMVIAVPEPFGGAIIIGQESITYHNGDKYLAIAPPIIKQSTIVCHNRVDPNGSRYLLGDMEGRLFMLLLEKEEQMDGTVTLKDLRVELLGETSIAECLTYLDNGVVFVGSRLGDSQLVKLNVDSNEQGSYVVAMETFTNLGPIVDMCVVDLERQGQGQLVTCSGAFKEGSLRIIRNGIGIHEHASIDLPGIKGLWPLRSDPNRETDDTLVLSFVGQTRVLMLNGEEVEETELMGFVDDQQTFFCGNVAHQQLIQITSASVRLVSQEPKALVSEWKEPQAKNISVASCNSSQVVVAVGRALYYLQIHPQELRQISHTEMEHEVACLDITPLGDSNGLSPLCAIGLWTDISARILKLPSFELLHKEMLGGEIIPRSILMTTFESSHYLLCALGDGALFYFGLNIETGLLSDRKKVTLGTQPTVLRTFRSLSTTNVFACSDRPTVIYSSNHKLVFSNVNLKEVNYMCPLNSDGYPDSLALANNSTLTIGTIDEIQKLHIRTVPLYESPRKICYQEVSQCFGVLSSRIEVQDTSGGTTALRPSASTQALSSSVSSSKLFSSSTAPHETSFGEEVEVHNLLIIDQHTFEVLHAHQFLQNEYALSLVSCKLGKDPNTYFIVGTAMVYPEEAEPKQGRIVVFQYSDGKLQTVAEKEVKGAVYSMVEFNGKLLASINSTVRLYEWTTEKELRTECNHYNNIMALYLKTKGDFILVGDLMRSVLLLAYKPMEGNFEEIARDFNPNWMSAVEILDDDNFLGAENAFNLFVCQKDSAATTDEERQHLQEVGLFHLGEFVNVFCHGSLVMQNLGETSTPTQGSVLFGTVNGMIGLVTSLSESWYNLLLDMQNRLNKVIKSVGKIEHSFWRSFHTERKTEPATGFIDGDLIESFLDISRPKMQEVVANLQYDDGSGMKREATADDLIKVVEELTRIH
Protocol: Test Example 1: Western Blot Detection of Degradation Activity of GSPT1 Protein by the Compounds
Cell line: Jeko-1 cell line was cultured with an RPMI1640 media containing 20% fetal bovine serum in an incubator at 37° C., 5% CO2, and saturated humidity.
DMSO control group and test compound (concentration shown in the table below) were set up, after processing for 24 hours, the cells were collected, pre-cooled cell lysate was added and left on ice for 10 minutes. The total protein of the cells was extracted, and the protein concentration was measured and quantified using the BCA method. Routine gel preparation, sample loading, electrophoresis were conducted, then the membrane was transferred, and sealed, wherein the primary antibody was diluted with a blocking solution at 1:500-5000. The membrane was immersed in the diluted primary antibody and incubated overnight at 4° C. After rinsing, the secondary antibody was diluted with a sealing solution at 1:10000-20000, the membrane was immersed in the diluted secondary antibody, and incubated at room temperature for 45 minutes. After rinsing, the results were tested on ODYSSEY (Li-COR). GAPDH was used as an internal reference control.
Image J software was used to perform gray level analysis on each band and the degradation rate of GSPT1 protein by the compounds was calculated.

[2] = test system: HL-60 cells; assay: CTG method, inhibition of HL-60 cell proliferation; settings: Homo sapiens; HL-60, 72 hours; read-out: Cellular proliferation inhibition IC50
Protocol: (§1) Test Example 2: CTG Method for Detecting the Inhibitory Effect of Compounds of Formula on the Proliferation of HNT 34 or HL-60 Cells
(§2) HNT-34 or HL-60 cells were taken and cultured in RPMI1640 medium containing 20% fetal bovine serum. The cells were inoculated on a 96 well plate, with 1×10^4 cells per well, and incubated at 37° C. in a […] incubator. After adding the test compound, it was incubated for 72 hours. Then an appropriate amount of CTG reagent was added, the luminescence value was measured, and the inhibition rate was calculated.

[3] = test system: HNT-34 cells; assay: CTG method, inhibition of HNT-34 cell proliferation; settings: HNT-34, 72 hours; read-out: Cellular proliferation inhibition IC50
Protocol: as §1, §2

Row | SMILES | inhibition at 0.1 µM ([1]; 100 nM, Jeko-1 cells, 24 hours) | inhibition at 10 µM ([1]; 10 μM, Jeko-1 cells, 24 hours) | IC50 [2] | IC50 [3] | also measured
1 | CCN(C(=O)OC(C)(C)C)[C@H](C(=O)NCc1ccc2c(c1)CN(C1CCC(=O)NC1=O)C2=O)c1ccccc1 (stereo partly drawn) [Compound 1-89, Tert butyl ((1S)-2-((2-(2,6-dioxypiperidin-3-yl)-1-oxoisoindoline-5-yl)methyl)amino)-2-oxo-1-phenylethy 1) (ethyl) carbamate] | 97.8% | 98.7% | 5 nM | 3.8 nM | –
2 | CC(C)C[C@@H](NC(=O)OC(C)(C)C)C(=O)NCc1ccc2c(c1)CN(C1CCC(=O)NC1=O)C2=O (stereo partly drawn) [Compound 4-123, Tert butyl ((2R)-1-((2-(2,6-dioxypiperidin-3-yl)-1-oxoidoline-5-yl)methyl)amino)-4-methyl-1-oxolan-2-yl) carbamate] | 79.9% | 92.7% | 28.9 nM | 26.9 nM | –
3 | CC(C)(C)OC(=O)N[C@H](C(=O)NCc1ccc2c(c1)CN(C1CCC(=O)NC1=O)C2=O)c1ccc2ccccc2c1 (stereo partly drawn) [Compound 4-133, tert butyl ((1S)-2-((2-(2,6-dioxypiperidin-3-yl)-1-oxoisoidoline-5-yl)methyl)amino)-1-(naphthalene-2-yl)-2-oxoethyl) carbamate] | 79% | 86% | 14.3 nM | 3.2 nM | –
4 | CN(C(=O)OC(C)(C)C)[C@H](C(=O)NCc1ccc2c(c1)CN(C1CCC(=O)NC1=O)C2=O)c1ccccc1 (stereo partly drawn) [Compound 4-135, Tert butyl ((1S)-2-((2-(2,6-dioxypiperidin-3-yl)-1-oxoisoindoline-5-yl)methyl)amino)-2-oxo-1-phenylethy 1) (methyl) carbamate] | 80% | 93% | 14.3 nM | 6.2 nM | –
5 | CC(C)(C)OC(=O)N[C@H](C(=O)NCc1ccc2c(c1)CN(C1CCC(=O)NC1=O)C2=O)c1ccc(F)cc1 (stereo partly drawn) [Compound 4-136, Tert butyl ((1S)-2-((2-(2,6-dioxypiperidin-3-yl)-1-oxoisoidoline-5-yl)methyl)amino)-1-(4-fluorophenyl)-2-oxoethyl) carbamate] | 82% | 97% | – | 3.6 nM | –
6 | Cc1ccc([C@H](NC(=O)OC(C)(C)C)C(=O)NCc2ccc3c(c2)CN(C2CCC(=O)NC2=O)C3=O)cc1 (stereo partly drawn) [Compound 4-166, Tert butyl ((1S)-2-((2-(2,6-dioxypiperidin-3-yl)-1-oxoisoindoline-5-yl)methyl)amino)-2-oxo-1-(p-tolyl) ethyl) carbamate] | 82% | 93% | 12.8 nM | 11.3 nM | –
7 | CC(C)(C)OC(=O)NC(C(=O)NCc1ccc2c(c1)CN(C1CCC(=O)NC1=O)C2=O)c1ccccc1Cl (centres unmarked) [Compound 4-200, Tert butyl (1-(2-chlorophenyl)-2-((2-(2,6-dioxypiperidin-3-yl)-1-oxoisoindoline-5-yl)methyl)amino)-2-oxoethyl) carbamate] | 99% | 100% | 8.3 nM | 3.2 nM | –
8 | CC(C)(C)OC(=O)N[C@H](C(=O)NCc1ccc2c(c1)CN(C1CCC(=O)NC1=O)C2=O)c1ccc(Br)cc1 (stereo partly drawn) [Compound 5-7, Tert butyl ((1S)-1-(4-bromophenyl)-2-((2-(2,6-dioxopyridin-3-yl)-1-oxoisoidoline-5-yl)methyl)amino)-2-oxoethyl) carbamate] | 94% | 100% | 12.4 nM | 8.7 nM | –
9 | O=C1CCC(N2Cc3cc(CNC(=O)C(CNC(=O)Oc4ccccc4)c4ccccc4)ccc3C2=O)C(=O)N1 (centres unmarked) [Compound 5-10, Phenyl (3-((2-(2,6-dioxypiperidin-3-yl)-1-oxoisoindolin-5-yl)methyl)amino)-3-oxo-2-phenylpropyl) carbamate] | – | – | 37.7 nM | 36.9 nM | inhibition at 0.1 µM [1]: 73%; inhibition at 10 µM [1]: 90%
10 | CC(C)(C)OC(=O)N[C@H](C(=O)NCc1ccc2c(c1)CN([C@H]1CCC(=O)NC1=O)C2=O)c1ccccc1Cl [Compound 5-17b, Tert butyl ((1S)-1-(2-chlorophenyl)-2-((2-((S)-2,6-dioxopyridin-3-yl)-1-oxoisoidoline-5-yl)methyl)amino)-2-oxoethyl) carbamate] | – | – | 4.6 nM | – | inhibition at 0.01 µM ([1]; 10 nM, Jeko-1 cells, 24 hours): 57%; inhibition at 1 µM ([1]; 1 μM, Jeko-1 cells, 24 hours): 100%
11 | CN(C(=O)OC(C)(C)C)[C@@H](C(=O)NCc1ccc2c(c1)CN(C1CCC(=O)NC1=O)C2=O)c1ccccc1 (stereo partly drawn) [Compound 5-31, Tert butyl ((1R)-2-((2-(2,6-dioxypiperidin-3-yl)-1-oxoisoindoline-5-yl)methyl)amino)-2-oxo-1-phenylethy 1) (methyl) carbamate] | 84% | 99% | 12.5 nM | 6.6 nM | –
12 | CN(C(=O)OC(C)(C)C)C(C(=O)NCc1ccc2c(c1)CN(C1CCC(=O)NC1=O)C2=O)c1ccc(Cl)c(Cl)c1 (centres unmarked) [Compound 5-76, Tert butyl (1-(3,4-dichlorophenyl)-2-((2-(2,6-dioxopyridin-3-yl)-1-oxoisoidoline-5-yl)methyl)amino)-2-oxoethyl (methyl) carbamate] | 65.2% | 84.6% | – | – | –
13 | CC(C)(C)OC(=O)O[C@H](C(=O)NCc1ccc2c(c1)CN(C1CCC(=O)NC1=O)C2=O)c1ccccc1 (stereo partly drawn) [Compound 5-82, Tert butyl ((1S)-2-((2-(2,6-dioxypiperidin-3-yl)-1-oxoisoindoline-5-yl)methyl)amino)-2-oxo-1-phenylethy 1) carbonate] | 29.8% | 74.8% | – | – | –
14 | CC(C)(C)OC(=O)N[C@H](Cc1ccccc1Cl)C(=O)NCc1ccc2c(c1)CN(C1CCC(=O)NC1=O)C2=O (stereo partly drawn) [Compound 5-83, Tert butyl ((2R)-3-(2-chlorophenyl)-1-((2-(2,6-dioxopyridin-3-yl)-1-oxoisoidoline-5-yl)methyl)amino)-1-oxopropan-2-yl) carbamate] | 96.2% | 95.5% | – | – | –
15 | CC(C)C[C@H](NC(=O)OC(C)(C)C)C(=O)NCc1ccc2c(c1)CN(C1CCC(=O)NC1=O)C2=O (stereo partly drawn) [Compound 5-84, Tert butyl ((2S)-1-((2-(2,6-dioxypiperidin-3-yl)-1-oxoisoidoline-5-yl)methyl)amino)-4-methyl-1-oxapent-2-yl) carbamate] | 52.7% | 82.7% | – | – | –
16 | O=C1CCC(N2Cc3cc(CNC(=O)[C@H](CC4CCCCC4)NC(=O)OC4CCCC4)ccc3C2=O)C(=O)N1 (stereo partly drawn) [Compound 5-93, Cyclopentyl ((2S)-3-cyclohexyl-1-((2-(2,6-dioxopyridin-3-yl)-1-oxoisoidoline-5-yl)methyl)amino)-1-oxopropan-2-yl) carbamate] | – | – | – | – | inhibition at 0.1 µM [1]: 99%; inhibition at 10 µM [1]: 100%
17 | O=C1CCC(N2Cc3cc(CNC(=O)[C@@H](CNC(=O)C4CCCC4)c4ccccc4)ccc3C2=O)C(=O)N1 (some centres unmarked) [Compound 5-95] | 16% | 70% | – | – | –
18 | CC(C)(C)OC(=O)NC(CC(=O)NCc1ccc2c(c1)CN(C1CCC(=O)NC1=O)C2=O)C1CCCC1 (centres unmarked) [Compound 5-99, Tert butyl (1-cyclopentyl-3-((2-(2,6-dioxypiperidin-3-yl)-1-oxoisoindoline-5-yl)methyl)amino)-3-oxopropyl) carbamate] | 98% | 99% | – | – | –
19 | O=C1CCC(N2Cc3cc(CNC(=O)[C@@H](NC(=O)OC4CCOC4)c4ccccc4)ccc3C2=O)C(=O)N1 (stereo partly drawn) [Compound 6-01, ((1S)-2-(((2-(2,6-dioxopyridin-3-yl)-1-oxoisoindoline-5-yl)methyl)amino)-2-oxo-1-phenylethyl) carbamate-β-Oxocyclopentanol Ester] | – | – | – | – | inhibition at 0.01 µM [1]: 10%; inhibition at 1 µM [1]: 68%
20 | O=C1CCC(N2Cc3cc(CNC(=O)[C@@H](NC(=O)OC4CCCCC4)c4ccccc4)ccc3C2=O)C(=O)N1 (stereo partly drawn) [Compound 6-02, ((1S)-2-(((2-(2,6-dioxypiperidin-3-yl)-1-oxoisoindoline-5-yl)methyl)amino)-2-oxo-1-phenylethyl) carbamate Cyclohexanol Ester] | – | – | – | – | inhibition at 0.01 µM [1]: 95%; inhibition at 1 µM [1]: 96%
21 | O=C1CCC(N2Cc3cc(CNC(=O)[C@@H](NC(=O)OC4CCOCC4)c4ccccc4)ccc3C2=O)C(=O)N1 (stereo partly drawn) [Compound 6-03, ((1S)-2-(((2-(2,6-dioxopyridin-3-yl)-1-oxoisoindoline-5-yl)methyl)amino)-2-oxo-1-phenylethyl) carbamate-γ-Oxyhexanol Ester] | – | – | – | – | inhibition at 0.01 µM [1]: 28%; inhibition at 1 µM [1]: 90%
